Patent publication US12053528B2, “Topical formulations comprising polyoxyl lipid or fatty acid and polyalkoxylated alcohol, and uses thereof” (Sun Pharmaceutical Industries Limited, priority 2015, dated 2024)

Experiment: Ocular tissue distribution of RX-10045 nanomicellar formulations (LC-MS/MS)
Type: in vivo, New Zealand White Rabbits
Details: after topical RX-10045 formulations 4x/day for 5 days
Experimental: A study is conducted in rabbits to test the tolerance and ocular tissue distribution of two nanomicellar formulations of active compound against matching placebos (Table 7a and 7b) and balanced saline solution (BSS). Healthy New Zealand female white rabbits (2-3 kg) are used for this study. One drop (approximately 35 μL) of study drug is applied o.d. 4×/day at two hour intervals for 5 days. One drop of BSS is applied to the contralateral eye.
Selected ocular fluids/tissues (aqueous humor, vitreous humor, conjunctiva, cornea, iris-ciliary body, lens, retina/choroid, and sclera) collected from two rabbits each in the active agent (0.15% in HCO-60, 0.1 in HCO-40) treatment groups, and from one rabbit in each of the matching placebo groups, are assayed for active compound by liquid chromatography-tandem mass spectrometry (LC-MS/MS). Warfarin-d5 and 5-HDA are used as internal standards for the analysis of RX-10045 and its active metabolite, RX-10008, respectively, in aqueous humor and vitreous humor. For the other ocular tissues (solid tissues), warfarin-d5 and phenyl acetic acid-d5 (PAA-d5) are used as the internal standards for compound 1001 and RX-10008, respectively. The analytical range for the solid tissues is 0.125-100 ng. The results of the solid tissue analyses are converted to ng/g by correcting for the amount of tissue analyzed.

## C#CC[C@@H](O)/C=C/C=C/C#C[C@@H](O)CCCC(=O)OC(C)C [compound 1001]
  Compound 1001 in the majority of ocular tissues: either not detected or is below the quantitation limit of the assay
  Concentrations of the compound 1001 ester prodrug in the sclera and conjunctiva: sporadic, relatively low
  Hydrolysis to active metabolite RX-10008 in ocular tissues: rapidly hydrolyzed
